Assay [1] relates to rats with unilateral injections of malonate. Briefly: GABA contents in basal ganglia by HPLC, malonate rat model of Huntington's disease. Format: in vivo. As to conditions: for GABA contents Globus pallidus / GABA contents Substantia nigra: % of lesioned side over non-lesioned side, mean ± SEM, i.p. 30 min before and 2 h after malonate (ACEA 3 mg/kg, HU-308 5 mg/kg, CBD 5 mg/kg), 48 h; for malonate-induced GABA loss in the striatum (caudate-putamen): FIG. 1, result in words, HU-308 5 mg/kg; for malonate-induced GABA loss in the striatum (caudate-putamen) / neurochemical deficits induced by malonate in the caudate-putamen and other basal ganglia structures: CBD 5 mg/kg i.p.; for neurochemical deficits induced by malonate in the caudate-putamen and other basal ganglia structures: Table 1 and FIG. 1, result in words, ACEA 3 mg/kg. As to the method:
(§1) Animals. Male Sprague-Dawley rats were housed in a room with controlled photoperiod (08:00-20:00 light) and temperature (23±1° C.). […] Each treatment group consisted of at least six animals.
(§2) Intrastriatal injection of malonate. Rats were injected stereotaxically (coordinates: +0.8 mm anterior, 2.9 mm lateral from the bregma, 4.5 mm ventral from the dura mater) into the left striatum with 2 M malonate in a volume of 1 μl and used for experimental analysis 48 h later.
(§3) Cannabinoid treatment. […] All compounds were prepared in Tween 80-saline solution (1:16 volume per volume). The volume dosage for i.p. administration was 2 ml/kg body weight. The doses used for each experiment were selected from the previous studies on the pharmacological properties of these compounds.
(§4) Animals were killed 46 hours after the second cannabinoid injection and their brains were rapidly removed and frozen in 2-methylbutane cooled in dry ice, and stored until evaluation of the degree of malonate-induced striatal injury.
(§5) Sample preparation. Brains coronal slices (around 500 μm thick) were made at levels containing the substantia nigra, the globus pallidus and the caudate-putamen, according to Palkovits M. and Brownstein J. (Maps and Guide to Microdissection of the Rat Brain. Elsevier, 1988). Subsequently, the three structures were dissected and homogenized in 20-40 volumes of cold 150 mM potassium phosphate buffer, pH 6.8. Each homogenate was distributed for the analysis of the contents of GABA or dopainine and its major metabolite, 3,4-dihydroxyphenylacetic acid (DOPAC), by High Performance Liquid Chromatography (HPLC) coupled to electrochemical detection, according to previously described methods (Romero J. et al., Brain Res. 694: 223-32, 1995; González S. et al., Life Sci. 65: 327-36, 1999). An aliquot of each homogenate was used to analyze protein concentration (Lowry O. H. et al., J. Biol. Chem. 193: 265-75, 1951).
Analysis of GABA contents. This analysis was carried out by HPLC with electrochemical detection according to the procedure described by Smith S, and Sharp T. (J. Chromat. 652: 228-33, 1994). The aliquot of the homogenate used for the direct measurement of GABA content was diluted 1:2 with 0.4 N perchloric acid containing 0.4 mM sodium disulfite, 0.90 mM EDTA and 10 μg/ml β-aminobutyrate (BABA) as an internal standard. Following, samples were centrifuged for 3 min (15,000 g) and 50 μl of each supernatant removed and neutralized with 100 μl of 0.1 N NaOH. Samples were stored at 4° C. until analysis. This was performed by derivatization of GABA and BABA (β-aminobutyrate) through the addition of 15 μl of o-phthaldehyde (OPA)-sulfite solution (14.9 mM OPA, 45.4 mM sodium sulfite and 4.5% ethanol in 327 mM borate buffer, pH 10.4). Samples were allowed to react at room temperature for a period of 10 min. After this time, 20 μl of each reaction mixture (including derivatizated calibration standards composed of known concentrations of GABA and BABA) were injected into the HPLC system. The HPLC system consisted of the following elements. The pump was an isocratic Spectra-Physics 8810. The column was a RP-18 (Spherisorb ODS-2; 150 mm, 4.6 mm, 5 μm particle size; Waters, Mass., USA). The mobile phase, previously filtered and degassed, consisted of 0.06 M sodium dihydrogen phosphate, 0.06 mM EDTA and 20-30% methanol (pH 4.4) and the flow rate was 0.8 ml/min. The effluent was monitored with a Metrohm bioanalytical system amperometric detector using a glassy carbon electrode. The potential was 0.85V relative to an Ag/AgCl reference electrode with a sensitivity of 50 nA (approx. 2 ng per sample). The signal was recorded on a Spectra-Physics 4290 integrator. The approximate retention times for GABA and BABA were 8 and 16 min, respectively. […] Values were expressed as μg/mg of protein.

The test system is the same in assay [2]. Description: dopamine and DOPAC contents in caudate-putamen by HPLC, malonate rat model. The class given is in vivo. As to conditions: % of lesioned side over non-lesioned side, mean ± SEM; i.p. 30 min before and 2 h after malonate (ACEA 3 mg/kg, HU-308 5 mg/kg, CBD 5 mg/kg); 48 h. As to the method:
as §1, §2, §3, §4, §5

Assay [3] deals with mice treated with the neurotoxin MPTP. The following applies: WO 03/064359; cited from earlier work.
Assay [4] has as its system rats with unilateral injections of malonate. Description: in situ hybridization of neuronal-specific enolase mRNA, malonate rat model. Format: in vivo. The following applies: FIG. 2, result in words; HU-308 5 mg/kg, CBD 5 mg/kg i.p. The protocol:
Animals were killed 46 hours after the second cannabinoid injection and their brains were rapidly removed and frozen in 2-methylbutane cooled in dry ice, and stored until evaluation of the degree of malonate-induced striatal injury. The protocol and results concerning the neurochemical evaluation of the neuronal injury and the effect of the various types of cannabinoids are reported in Example 2. The protocol and results concerning the effect of the various types of cannabinoids on the mRNA levels of neuron specific enolase are reported in Example 3.
(§6) Brain slicing. Coronal sections, 40 μm-thick, were cut in a cryostat, according to the Paxinos G. and Watson C. atlas (Rat brain in stereotaxic coordinates. Academic Press, London, 1986). Sections were thaw-mounted onto Superfrost Plus glass slides and dried briefly at 30° C. and stored at −80° C. until used.
Analysis of mRNA levels of NSE. Briefly, sections were fixed in 4% paraformaldehyde for 5 min and, after rinsing twice in PBS, were acetylated by incubation in 0.25% acetic anhydride, prepared in 0.1 M triethanolamine/0.15 M sodium chloride (pH 8.0), for 10 min. […]
(§7) The oligonucleotide probe was labeled at the 3′-end with [^35S]-dATP using terminal deoxynucleotidyl-transferase. […] The intensity of the hybridization signal was assessed by measuring the grey levels in the films with a computer-assisted video densitometer. […]

For the next assay, the target named is human CB1 receptors (Homo sapiens, UniProt P21554). As to conditions: read-out: IC50 human CB1 receptors; as disclosed in WO 03/064359; cited from earlier work.
Chain of human CB1 receptors (P21554 whole entry): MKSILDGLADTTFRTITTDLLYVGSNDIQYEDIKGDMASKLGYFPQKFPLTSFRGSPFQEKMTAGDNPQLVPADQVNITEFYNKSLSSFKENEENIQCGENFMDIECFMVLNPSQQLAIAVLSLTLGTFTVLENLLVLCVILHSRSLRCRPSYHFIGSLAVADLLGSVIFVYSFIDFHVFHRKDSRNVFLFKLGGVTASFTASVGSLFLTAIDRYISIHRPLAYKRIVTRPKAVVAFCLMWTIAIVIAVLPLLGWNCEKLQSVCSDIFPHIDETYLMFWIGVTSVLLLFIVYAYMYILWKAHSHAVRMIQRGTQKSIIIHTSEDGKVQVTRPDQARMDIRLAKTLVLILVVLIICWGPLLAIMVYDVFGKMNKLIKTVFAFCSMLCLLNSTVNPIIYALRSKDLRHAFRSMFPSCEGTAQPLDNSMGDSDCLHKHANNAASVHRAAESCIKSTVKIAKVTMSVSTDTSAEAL
The subject of assay [5] is rats with unilateral injections of malonate. Briefly: in situ hybridization of SOD-1 and SOD-2 mRNA, malonate rat model. As to conditions: result in words, HU-308 5 mg/kg i.p. Format: in vivo. The protocol: The protocol and results concerning possible sites of action are reported in Example 6.
as §6
Analysis of mRNA levels of NSE. Briefly, sections were fixed in 4% paraformaldehyde for 5 min and, after rinsing twice in PBS, were acetylated by incubation in 0.25% acetic anhydride, prepared in 0.1 M triethanolamine/0.15 M sodium chloride (pH 8.0), for 10 min. Sections were rinsed in 0.3 M sodium chloride/0.03 M sodium citrate, pH 7.0, dehydrated and delipidated by ethanol/chloroform series. For hybridization, the following synthetic probe of 45 nucleotides was used. […]
as §7
Superoxide dismutase-1 and -2 (SOD-1 and SOD-2) were used as markers of endogenous antioxidant defenses. Their relative levels in lesioned vs. non-lesioned areas of malonate injected rats were measured by in situ hybridization. […]

Assay [6] deals with rats with unilateral lesions of the caudate-putamen generated by local application of malonate. As to conditions: Lastres-Becker et al., Neuroreport 14: 813-6, 2003; effects not dose-dependent; cited from earlier work.
The test system of assay [7] is rats systemically exposed to 3-nitropropionic acid. The following applies: Lastres-Becker et al., Neuroreport 15: 2375-9, 2004; cited from earlier work.

For orientation: IC50 means the point on the concentration scale where inhibition reaches its midpoint. `CCCCCCC(C)(C)c1cc(OC)c(C2C=C(CO)C3CC2C3(C)C)c(OC)c1` (single isomer, unassigned; (+)) [HU-308, (+){4-[4-(1,1-dimethylheptyl)-2,6-dimethoxyphenyl]-6,6-dimethyl-bicyclo[3.1.1]hept-2-en-2-yl}-methanol]: in assay [1], the “GABA contents Globus pallidus” value amounted to 90.1 ± 13.4 %, the “GABA contents Substantia nigra” value is reported as 93.8 ± 7.7% and the “malonate-induced GABA loss in the striatum (caudate-putamen)” value is given as “reduced malonate-induced GABA loss”. The “GABA contents in the lesioned side” value in assay [1] (striatum, lesioned side, malonate + HU-308 5 mg/kg i.p.) was 1.12±0.08 μg/mg of protein. For the same compound, the “GABA contents in the non-lesioned side” value in assay [1] (striatum, non-lesioned side, malonate + HU-308 5 mg/kg i.p.) is listed as 1.96±0.11 μg/mg of protein. Moreover, in assay [2], the “DA contents Caudate-putamen” value is 34.1 ± 5.2 % and the “DOPAC contents Caudate-putamen” value stood at 53.9 ± 5.7 %. Further, the “cell death in the substantia nigra” value in assay [3] is “reduces the extent of cell death in the substantia nigra”. Moreover, the “mRNA levels for neuronal-specific enolase in the caudate-putamen” value in assay [4] is on record as “partially prevented the malonate-induced reduction”. For the same compound, the IC50 at human CB1 receptors was 3.6 µM. In addition, the “mRNA levels for SOD-1 in the caudate-putamen” value in assay [5] (FIG. 5A) is given as “unable to prevent the malonate-induced decrease”. Besides, the “mRNA levels for SOD-2 in the caudate-putamen” value in assay [5] (FIG. 5B) is reported as “unable to prevent the malonate-induced decrease”.

As for `CCCCC/C=C\C/C=C\C/C=C\C/C=C\CCCC(=O)NCCCl` [ACEA, arachidonyl-2-chloroethylamide], in assay [1], the “GABA contents Globus pallidus” value was determined as 61.1 ± 12.2 %; the “GABA contents Substantia nigra” value is 92.1 ± 5.2%; the “neurochemical deficits induced by malonate in the caudate-putamen and other basal ganglia structures” value is “did not influence neurochemical deficits”. Moreover, in assay [2], the “DA contents Caudate-putamen” value was determined as 23.8 ± 5.4 % and the “DOPAC contents Caudate-putamen” value stood at 44.9 ± 9.7 %.

Regarding `C=C(C)[C@@H]1CCC(C)=C[C@H]1c1c(O)cc(CCCCC)cc1O` [CBD, cannabidiol], in assay [1], the “GABA contents Globus pallidus” value is 54.4 ± 8.2 %; the “GABA contents Substantia nigra” value is given as 86.3 ± 8.6%; the “malonate-induced GABA loss in the striatum (caudate-putamen)” value is “slightly reduce the GABA depletion”; the “neurochemical deficits induced by malonate in the caudate-putamen and other basal ganglia structures” value is listed as “lack of neuroprotectant effects”. Besides, the “DA contents Caudate-putamen” value in assay [2] stood at 12.6 ± 4.9 %. Besides, in assay [4], the “mRNA levels for neuronal-specific enolase in the caudate-putamen” value is “totally inactive”.

On to `Cc1c(C(=O)NN2CCCCC2)nn(-c2ccc(Cl)cc2Cl)c1-c1ccc(Cl)cc1` [SR141716], for which the “effect on malonate toxicity” value in assay [6] is reported as “enhanced malonate toxicity”.

Take `CCCCCc1cc(O)c2c(c1)OC(C)(C)[C@@H]1CCC(C)=C[C@@H]21` [Δ^9-THC, Δ^9-tetrahydrocannabinol]: the “neuroprotection in 3-nitropropionic acid rats” value in assay [7] is “neuroprotectant”. Also, the “effect on malonate toxicity” value in assay [6] is reported as “pro-toxic”.

In the case of SR144528, the “effect of co-administration on the HU-308 reduction of malonate-induced GABA depletion in the caudate-putamen” value in assay [1] (FIG. 3, SR144528 1 mg/kg i.p. with HU-308 5 mg/kg i.p.) is recorded as “completely reversed”.

(Values after patent US20070248702A1, “Use of CB2 receptors agonists for the treatment of Huntington's disease” (priority 2004, published 2007).)
